Columns and labels:
[1] = Liquid; for mass density: 298.15 K, 101.33 kPa
[2] = refractive index (Na D-line) (dimensionless); conditions: 298.15 K, 101.33 kPa, Liquid

CCC(=O)CC [pentan-3-one]
Conditions	mass density [kg/m3]	refractive index	vapor or sublimation pressure [kPa]
[1], 290 K	–	–	3.42
[1], 309.9 K	–	–	9.21
[1], 320 K	–	–	14.22
[1], 330.6 K	–	–	22.33
[1], 341.4 K	–	–	33.64
[1], 350.4 K	–	–	46.5
[1], 361.3 K	–	–	66.6
[1], 367.5 K	–	–	82.09
[1], 371 K	–	–	90.18
[1], 371.5 K	–	–	91.82
[1], 374.75 K	–	–	101.32
[1], 375.2 K	–	–	102.52
[1], Vibrating tube method	809.43	–	–
[2], Standard Abbe refractometry	–	1.39	–

CCCC(C)=O [pentan-2-one]
Conditions	mass density [kg/m3]	refractive index	vapor or sublimation pressure [kPa]
[1], 329.8 K	–	–	20.44
[1], 336.3 K	–	–	26.55
[1], 342.1 K	–	–	33.04
[1], 347.2 K	–	–	39.99
[1], 351.5 K	–	–	46.57
[1], 355.5 K	–	–	53.47
[1], 358.9 K	–	–	59.95
[1], 362 K	–	–	66.61
[1], 365 K	–	–	73.28
[1], 367.7 K	–	–	79.91
[1], 370.3 K	–	–	86.76
[1], 372.6 K	–	–	93.11
[1], 375 K	–	–	100.06
[1], 375.09 K	–	–	101.32
[1], 377.2 K	–	–	106.83
[1], 379.3 K	–	–	113.61
[1], 381.2 K	–	–	120.11
[1], 383 K	–	–	126.54
[1], 384.8 K	–	–	133.92
[1], vibrating tube	801.47	–	–
[2], Abbe refractometer	–	1.3881	–

CCC(O)CC [3-pentanol]
Conditions	mass density [kg/m3]	refractive index	vapor or sublimation pressure [kPa]
[1], 293.8 K	–	–	0.84
[1], 300.8 K	–	–	1.33
[1], 308 K	–	–	2.11
[1], 315.4 K	–	–	3.35
[1], 323 K	–	–	5.31
[1], 331.1 K	–	–	8.41
[1], 339.8 K	–	–	13.33
[1], 349.3 K	–	–	21.13
[1], 359.4 K	–	–	33.49
[1], 370.5 K	–	–	53.08
[1], 382.9 K	–	–	84.13
[1], 388.38 K	–	–	101.32
[1], 388.7 K	–	–	101.32
[1], vibrating tube	815.5	–	–
[2], Abbe refractometer	–	1.4087	–

Reference: the NIST ThermoML archive (doi:10.1021/je025651k)
